Experimental data as given in patent US20240140970A1, “A […], AND PREPARATION METHOD AND USE THEREOF” (ASCENTAWITS PHARMACEUTICALS, LTD., priority 2021, published 2024).
“And” between values parts separate entries of the source, which are not always exact repeats. Identical values can stand only once.

Assay: Freeze/thaw stability of AST-2660 in human plasma (LC-MS/MS)
Assay type: in vitro ADME
Method: The detection method established in example 4 was used to detect the content of AST-2660 in the human plasma to be tested.
Matrix: the mixed normal human plasma containing anticoagulant (K2 EDTA) • a: the internal standard working solution: AST-2660-D8 was taken, added with methanol, and diluted to prepare a solution containing about 100 ng per 1 ml. • b: the solution to be tested (no internal standard compound was added to the solution to be tested at this time): it was obtained by taking a blood sample to be tested. • c: the standard working solution (no internal standard compound was added to the standard working solution at this time): an appropriate amount of AST-2660 was taken and accurately weighed, dissolved with methanol, and diluted to prepare a solution containing about 1.0 mg per 1 ml, which was used as the standard working stock solution. An appropriate amount of the standard working stock solution was taken, added with the matrix and diluted to prepare standard working solutions with different concentrations containing about 200 ng, 160 ng, 100 ng, 50 ng, 10 ng, 2.0 ng, 1.0 ng and 0.5 ng per 1 ml, respectively. (The solution was stored at −70° C.) • d: the quality control sample solution: an appropriate amount of AST-2660 was taken and accurately weighed, dissolved with methanol, and diluted to prepare a solution containing about 10 μg per 1 ml, which was used as the quality control working stock solution. An appropriate amount of the quality control working stock solution was taken, added with matrix to prepare quality control working solutions with different concentrations containing about 150 ng, 60 ng, 15 ng, 1.5 ng and 0.5 ng per 1 ml. (The solution was stored at −70° C.)
The solution to be tested, the standard working solution and the quality control sample solution were thawed at room temperature and mixed uniformly. 100 μl of the above solution was respectively taken, added with 20 μl of the internal standard and 500 μl of methanol, and vortexed for 3 minutes to mix uniformly, and then centrifuged for 10 minutes at 2143 rcf. 450 μl of the supernatant was taken and dried, and 150 μl of methanol was added for redissolution, and sonicated. Then the plates were centrifuged for 3 minutes at 4° C. It was obtained by taking […] of supernatant.
Liquid phase conditions: A SHARC 1, 3 μm, 2.1*50 mm or chromatograph column with equivalent performance was used; the mobile phase was a methanol solution comprising low content of ammonium acetate; the mobile phase B was acetonitrile; the gradient elution was performed according to the following table, column temperature: 20° C.; injection volume: 5 μl.
Mass spectrometric conditions: electrospray ion source with negative ion scanning mode; spray potential: −4500 V; ion source temperature: 500° C.; collision energy (CE): −22 eV; declustering potential (DP): −55V; entrance potential (EP): −10V; collision chamber exit potential (CXP): −16V; dwell time: 100 ms; high purity nitrogen was used for all gases; AST-2660 ions pairs: m/z 147.0→m/z 62.9; the internal standard AST-2660-D8 ion pairs: m/z 155.0→m/z 62.9.
The AST-2660 standard working solution, blank sample, zero concentration sample, sample solution to be tested and quality control sample solution with different concentrations after extraction were respectively taken and injected into LC-MS/MS for detection.
Calculation results: the relationship function y=f (x) of the ratio of the peak area of the AST-2660 to that of the internal standard was obtained from AST-2660 standard working solutions with different concentrations. The ratio of the peak area of the AST-2660 to that of the internal standard was determined from the solution to be tested after extraction, and substituted into the relationship function y=f (x) to calculate the concentration of the metabolite II in the solution to be tested.

[1] = DilQC (10-fold dilution) nominal 1500 ng/ml, 5 freeze/thaw cycles at −20° C.
[2] = DilQC (10-fold dilution) nominal 1500 ng/ml, 5 freeze/thaw cycles at −70° C.
[3] = QC1 nominal 1.50 ng/ml, 5 freeze/thaw cycles at −20° C.
[4] = QC1 nominal 1.50 ng/ml, 5 freeze/thaw cycles at −70° C.
[5] = QC4 nominal 150 ng/ml, 5 freeze/thaw cycles at −20° C.
[6] = QC4 nominal 150 ng/ml, 5 freeze/thaw cycles at −70° C.

## O=P([O-])(N1CC1)N1CC1.[Na+] [AST-2660]
[1]
  AST-2660 concentration, Mean value: 1288 ng/mL
  AST-2660 concentration, single replicates: 1310 ng/ml (2×) and 1250 ng/ml and 1280 ng/ml
  RE (%) vs nominal: −14.2%
[2]
  AST-2660 concentration, Mean value: 1540 ng/mL
  AST-2660 concentration, single replicates: 1650 ng/ml and 1500 ng/ml (2×) and 1510 ng/ml
  RE (%) vs nominal: 2.7%
[3]
  AST-2660 concentration, Mean value: 1.13 ng/mL
  AST-2660 concentration, single replicates: 1.13 ng/mL and 1.18 ng/mL and 1.14 ng/mL and 1.06 ng/mL
  RE (%) vs nominal: −24.8%
[4]
  AST-2660 concentration, Mean value: 1.60 ng/mL
  AST-2660 concentration, single replicates: 1.69 ng/mL and 1.72 ng/mL and 1.47 ng/mL and 1.51 ng/mL
  RE (%) vs nominal: 6.5%
[5]
  AST-2660 concentration, Mean value: 140 ng/mL
  AST-2660 concentration, single replicates: 136 ng/mL and 138 ng/mL and 152 ng/mL and 132 ng/mL
  RE (%) vs nominal: −7.0%
[6]
  AST-2660 concentration, Mean value: 149 ng/mL
  AST-2660 concentration, single replicates: 145 ng/ml and 148 ng/ml (2×) and 154 ng/ml
  RE (%) vs nominal: −0.8%
freeze-thaw process from −20° C. to room temperature
  change of AST-2660 content (in words): reduced significantly
freeze-thaw process from −70° C. to room temperature
  change of AST-2660 content (in words): almost no reduction
